Columns and labels:
barnyardgrass [1] = assay: Test Example 2: soil surface treatment, upland pot test; format: in vivo, Echinochloa crus-galli L.; settings: observed 20th to 28th day
Method in brief: (§1)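 Visual growth-control ratings (0 = untreated, 100 = complete kill) were taken 20–28 days after soil surface application. The spray was made one day post-sowing in upland soil pots, using formulated compound diluted with water at 1,500 L/ha at a set active ingredient rate.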

crabgrass = assay: as above; format: in vivo, Digitaria sanguinalis L.; settings: observed 20th to 28th day
Method in brief: as §1

green foxtail = assay: as above; format: in vivo, Setaria viridis L.; settings: observed 20th to 28th day
Method in brief: as §1

redroot pigweed = assay: as above; format: in vivo, Amaranthus retroflexus L.; settings: observed 20th to 28th day
Method in brief: as §1

prickly sida = assay: as above; format: in vivo, Sida spinosa L.; settings: observed 20th to 28th day
Method in brief: as §1

velvetleaf = assay: as above; format: in vivo, Abutilon theophrasti MEDIC.; settings: observed 20th to 28th day
Method in brief: as §1

rice = assay: as above; format: in vivo, Oryza sativa L.; settings: observed 20th to 28th day
Method in brief: as §1

wheat = assay: as above; format: in vivo, Triticum spp.; settings: observed 20th to 28th day
Text: Upland field soil was put into a 1/170,000 ha pot, and seed of various plants (barnyardgrass, crabgrass, green foxtail, redroot pigweed, prickly sida, velvetleaf, rice, wheat, corn, soybean) were sown. On the 1st day after the sowing, a wettable powder or emulsifiable concentrate having the compound of the present invention formulated in accordance with a usual formulation method, was weighed so that the active ingredient would be a predetermined amount, and diluted with water in an amount of 1,500 L/ha. The herbicide thus adjusted was applied by a small size sprayer for soil surface treatment. On the 20th to 28th days after the application of the herbicide, the growth of the respective plants was visually observed, and the herbicidal effects were evaluated by the growth controlling degrees (%) ranging from 0 (equivalent to the non-treated plot) to 100 (complete kill), whereby the results shown in Table 4, were obtained.

corn = assay: as above; format: in vivo, Zea mays L.; settings: observed 20th to 28th day
Method in brief: as §1

soybean = assay: as above; format: in vivo, Glycine max Merr.; settings: observed 20th to 28th day
Method in brief: as §1

barnyardgrass [2] = assay: Test Example 3: paddy pot test, application under submerged conditions; format: in vivo, Echinochloa crus-galli L.; settings: submerged application at 0.5 leaf stage, visually observed 14 days after application, 0 = non-treated, 100 = complete kill
Method in brief: (§2)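 After sowing seeds and planting wapato tubers in flooded paddy soil, an aqueous dilution of the formulated compound was added to the 3–4 cm flood water at early leaf stage. Percent growth control relative to the untreated plot was assessed visually on day 14.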

japanese bulrush = assay: as above; format: in vivo, Scirpus juncoides; settings: submerged application at 0.5 leaf stage, visually observed 14 days after application, 0 = non-treated, 100 = complete kill
Method in brief: as §2

rice (var. Nihonbare) = assay: Test Example 3: paddy pot test, transplanted rice; format: in vivo, Oryza sativa L.; settings: applied 4th day after transplantation, visually observed 21st day after application, 0 = non-treated, 100 = complete kill
Method in brief: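 Rice (2-leaf stage) was transplanted 3 cm deep into puddled, leveled paddy soil under 3–4 cm flooding. On day 4 after transplanting, diluted wettable powder or emulsifiable concentrate was pipetted onto the water at a predetermined active-ingredient dose. Growth control (0 = untreated, 100 = complete kill) was scored visually 21 days later.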

SMILES | Growth controlling degree (%) Barnyardgrass (barnyardgrass [1]; active ingredient 500 g/ha) [%] | Growth controlling degree (%) Crabgrass (crabgrass; active ingredient 500 g/ha) [%] | Growth controlling degree (%) Green foxtail (green foxtail; active ingredient 500 g/ha) [%] | Growth controlling degree (%) Redroot pigweed (redroot pigweed; active ingredient 500 g/ha) [%] | Growth controlling degree (%) Prickly sida (prickly sida; active ingredient 500 g/ha) [%] | Growth controlling degree (%) Velvetleaf (velvetleaf; active ingredient 500 g/ha) [%] | Growth controlling degree (%) Rice (rice; active ingredient 500 g/ha) [%] | Growth controlling degree (%) wheat (wheat; active ingredient 500 g/ha) [%] | Growth controlling degree (%) Corn (corn; active ingredient 500 g/ha) [%] | Growth controlling degree (%) Soyabean (soybean; active ingredient 500 g/ha) [%] | Growth controlling degree (%) Barnyardgrass (barnyardgrass [2]; active ingredient 250 g/ha) [%] | Growth controlling degree (%) Japanese bulrush (japanese bulrush; active ingredient 250 g/ha) [%] | Growth controlling degree (%) Rice (rice (var. Nihonbare); active ingredient 250 g/ha) [%] | Growth controlling degree (%) Barnyardgrass (barnyardgrass [1]; active ingredient 250 g/ha) [%] | Growth controlling degree (%) Crabgrass (crabgrass; active ingredient 250 g/ha) [%] | Growth controlling degree (%) Green foxtail (green foxtail; active ingredient 250 g/ha) [%] | Growth controlling degree (%) Redroot pigweed (redroot pigweed; active ingredient 250 g/ha) [%] | Growth controlling degree (%) Prickly sida (prickly sida; active ingredient 250 g/ha) [%] | Growth controlling degree (%) Velvetleaf (velvetleaf; active ingredient 250 g/ha) [%] | Growth controlling degree (%) Rice (rice; active ingredient 250 g/ha) [%] | further results
CC(C)C(c1cnccc1C(F)(F)F)N(C)S(=O)(=O)c1ccccc1Cl (racemic) [Compound I-126] | 80 | 30 | 70 | 30 | 50 | 10 | 20 | 10 | 0 | 0 | – | – | – | – | – | – | – | – | – | – | –
CC(C)C(c1cnccc1C(F)(F)F)N(C)C(=O)Cc1ccc(Br)c(F)c1 (racemic) [Compound I-129] | 98 | 98 | 100 | 40 | 70 | 10 | 30 | 30 | 30 | 10 | 100 | 90 | 0 | – | – | – | – | – | – | – | –
CC(C)C(c1cnccc1C(F)(F)F)N(C)C(=O)Cc1ccc(Br)cc1F (racemic) [Compound I-137] | – | – | – | – | – | – | – | – | – | – | 100 | 98 | 0 | 98 | 98 | 100 | 50 | 50 | 50 | 40 | Growth controlling degree (%) wheat (wheat; active ingredient 250 g/ha): 30%; Growth controlling degree (%) Corn (corn; active ingredient 250 g/ha): 10%; Growth controlling degree (%) Soyabean (soybean; active ingredient 250 g/ha): 20%
CC(C)C(c1cnccc1C(F)(F)F)N(C)S(=O)(=O)C=Cc1ccccc1 (racemic) [I-135] | 80 | 70 | 70 | 20 | 50 | 30 | 20 | 10 | 0 | 0 | – | – | – | – | – | – | – | – | – | – | Growth controlling degree (%) Barnyardgrass (barnyardgrass [2]; active ingredient 500 g/ha): 98%; Growth controlling degree (%) Japanese bulrush (japanese bulrush; active ingredient 500 g/ha): 100%; Growth controlling degree (%) Rice (rice (var. Nihonbare); active ingredient 500 g/ha): 10%
CC(C)C(c1cnccc1C(F)(F)F)N(C)S(=O)(=O)c1ccc(Br)cc1 (racemic) [I-136] | – | – | – | – | – | – | – | – | – | – | 100 | 70 | 0 | 70 | 90 | 95 | 10 | 50 | 30 | 50 | Growth controlling degree (%) wheat (wheat; active ingredient 250 g/ha): 10%; Growth controlling degree (%) Corn (corn; active ingredient 250 g/ha): 20%; Growth controlling degree (%) Soyabean (soybean; active ingredient 250 g/ha): 10%
CC(C)C(Br)C(=O)N(C)C(c1cnccc1C(F)(F)F)C(C)C (stereo not drawn) [Compound I-197] | 100 | 100 | 100 | 90 | 70 | 50 | 40 | 50 | 20 | 10 | 100 | 98 | 0 | – | – | – | – | – | – | – | –
